Values quoted from earlier work as cited in patent EP0661967B1, “COMBINED VIRUSTATIC ANTIMEDIATOR (COVAM) TREATMENT OF COMMON COLDS” (UNIVERSITY OF VIRGINIA PATENT FOUNDATION, priority 1991, dated 1993).

Tests used:
rhinovirus [1] = settings: in vivo
rhinovirus [2] = test system: rhinovirus

| Compound | effect on nasal symptoms and nasal mucus production (rhinovirus [1]) | mean total symptom scores during four days of treatment (rhinovirus [1]) | mean total symptoms score lower than that for the group receiving placebo (rhinovirus [2]; four days of treatment) | mean total symptoms score during the four days of treatment (rhinovirus [2]; loading dose 400 or 500 mg, then 200 or 500 mg three times a day for five days, begun 6 hours after virus challenge, placebo 17.35±2.6, p=0.08) | headache, malais, myalgia, and cough (rhinovirus [2]; treated group versus placebo) |
| --- | --- | --- | --- | --- | --- |
| CC(C)[N+]1(C)[C@@H]2CC[C@H]1C[C@@H](OC(=O)C(CO)c1ccccc1)C2 (some centres unmarked) [ipratropium] | mild beneficial effect | 10±1.6 |  |  |  |
| COc1ccc2cc([C@H](C)C(=O)O)ccc2c1 [naproxen] |  |  | thirty four | 12±1.65 | significantly reduced |
